Patent publication US20260200921A1, “SUBSTITUTED AMINOPYRIDINE COMPOUNDS AS AKT INHIBITORS” (Atavistik Bio, Inc., priority 2023, published 2026)

Assays:
wildtype AKT1 = molecular target: T1, wildtype AKT1 (Homo sapiens, UniProt P31749); assay: AKT1 kinase assay, wildtype (TR-FRET, Lance); format: biochemical; conditions: full-length human recombinant wildtype AKT1 activated by PDPK1; Ulight-CREBtide substrate; either 50 μM ATP or 2 mM ATP
T1 construct: Purified human recombinant kinase full-length wildtype AKT1 was expressed in insect cells; made in house; host or cells: insect cells
T1 sequence (P31749 whole entry): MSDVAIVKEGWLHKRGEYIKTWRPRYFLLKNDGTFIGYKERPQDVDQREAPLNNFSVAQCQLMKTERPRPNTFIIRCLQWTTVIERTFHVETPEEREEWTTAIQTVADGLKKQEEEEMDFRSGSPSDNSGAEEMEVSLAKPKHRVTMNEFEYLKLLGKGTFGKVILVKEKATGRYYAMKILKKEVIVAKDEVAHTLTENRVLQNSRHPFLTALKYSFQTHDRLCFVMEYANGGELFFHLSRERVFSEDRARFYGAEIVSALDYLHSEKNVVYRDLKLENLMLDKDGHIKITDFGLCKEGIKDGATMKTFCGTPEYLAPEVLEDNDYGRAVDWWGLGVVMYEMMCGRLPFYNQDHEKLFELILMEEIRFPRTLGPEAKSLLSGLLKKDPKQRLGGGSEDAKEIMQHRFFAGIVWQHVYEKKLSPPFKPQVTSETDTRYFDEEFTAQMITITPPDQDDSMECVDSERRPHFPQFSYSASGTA
Experimental: AKT1 kinase assay: Inhibitory effects of compounds on wildtype AKT1 were undertaken in a 10-pt dose response kinase activity assay measuring phospho-peptide product formation based on TR-FRET signal as described in the following paragraph.
(§1) Purified human recombinant kinase full-length wildtype AKT1 was expressed in insect cells and activated in vitro by PDPK1. Ulight™-CREBtide (PerkinElmer, catalog number TRF0107) was used as the peptide substrate. The reaction buffer consisted of 50 mM HEPES pH 7.5, 10 mM MgCl2, 0.01% Triton X-100, 0.01% BSA, 2 mM DTT, 0.6 nM AKT1, 50 nM Ulight™-CREBtide and either 50 μM ATP or 2 mM ATP. The compound solution was prepared as 10 mM DMSO stock. For the assay, a 1:3 serial dilution 10-pt dose response of test compounds, in duplicate, for each concentration were dispensed into a 384-well plate (Corning, catalog number 4513). Final DMSO concentration in the assay was 1%. The enzyme mixture (5 μL, 1.2 nM) were added and the mixture was incubated for 15 min at RT prior to the start of the kinase reaction by the addition of 5 μL substrate mixture (100 nM Ulight™-CREBtide). The reaction was stopped after 60 min of incubation at RT by the addition of 10 μL of Detection Mix (PerkinElmer. #CR97-100) consisting of Europium-anti-phospho-CREB (Ser133) (Perkin Elmer, catalog numberTRF0200). Incubation with the detection mix for a further 60 min allowed binding of antibody to the phospho-Ulight™ CREBtide. The fluorescence emissions at 620 nm and 665 nm after excitation at 350 nm was measured using Envision reader. The ratio of the emissions at 665 nm and at 620 nm provided the measure for the amount of phosphorylated CREBtide product of AKT1 kinase activity. To determine the IC50 values, the data was normalized (enzyme reaction without inhibitor=0% inhibition, all other assay components but no enzyme=100% inhibition) and IC50 values were calculated by a 4-parameter fit using an in-house developed protocol.

AKT1 E17K = molecular target: T2, AKT1 E17K (Homo sapiens, UniProt P31749, E17K); assay: AKT1 E17K kinase assay (TR-FRET, Lance); format: biochemical; conditions: full-length human recombinant AKT1 E17K activated by PDPK1; Ulight-CREBtide substrate; either 50 μM ATP or 2 mM ATP
T2 construct: Purified human recombinant kinase full-length AKT1 E17K was expressed in insect cells; made in house; host or cells: insect cells
T2 sequence (P31749 whole entry E17K): as the sequence (P31749 whole entry) above, with E17K counted along it
Experimental: AKT1 E17K kinase assay: Inhibitory effects of compounds on AKT1 E17K were undertaken in a 10-pt dose response kinase activity assay measuring phospho-peptide product formation based on TR-FRET signal as described in the following paragraph.
as §1, with “full-length” for “full-length wildtype”, “AKT1 E17K” for “AKT1”, “AKT1 E17K,” for “AKT1,”, “(PerkinElmer,” for “(PerkinElmer.”

Structure (SMILES) | IC50 (wildtype AKT1) | IC50 (AKT1 E17K)
Cc1cc(O)n(-c2ccc(C(=O)NCc3ccc(-n4c(-c5cccnc5N)nc5ccc(-c6ccccc6)nc54)cc3)cc2)n1 [Compound I-1, N-(4-(2-(2-aminopyridin-3-yl)-5-phenyl-3H-imidazo[4,5-b]pyridin-3-yl)benzyl)-4-(3-methyl-5-oxo-4,5-dihydro-1H-pyrazol-1-yl)benzamide] | < 500 nM | 50 to 200 nM
COc1cc(C)nn1-c1ccc(C(=O)NCc2ccc(-n3c(-c4cccnc4N)nc4ccc(-c5ccccc5)nc43)cc2)cc1 [Compound I-2, N-(4-(2-(2-aminopyridin-3-yl)-5-phenyl-3H-imidazo[4,5-b]pyridin-3-yl)benzyl)-4-(5-methoxy-3-methyl-1H-pyrazol-1-yl)benzamide] | < 500 nM | 200 to 500 nM
Cc1cc(O)n(-c2cccc(C(=O)NCc3ccc(-n4c(-c5cccnc5N)nc5ccc(-c6ccccc6)nc54)cc3)c2)n1 [Compound I-3, N-(4-(2-(2-aminopyridin-3-yl)-5-phenyl-3H-imidazo[4,5-b]pyridin-3-yl)benzyl)-3-(5-hydroxy-3-methyl-1H-pyrazol-1-yl)benzamide] | < 500 nM | ≥ 500 nM
Cc1cc(O)n(-c2ccc(C(=O)NCc3ccc(-n4c(-c5cccnc5N)nc5ccc(-c6ccccc6)nc54)cc3)c(F)c2)n1 [Compound I-4, N-[[4-[2-(2-amino-3-pyridyl)-5-phenyl-imidazo[4,5-b]pyridin-3-yl]phenyl]methyl]-2-fluoro-4-(5-hydroxy-3-methyl-pyrazol-1-yl)benzamide] | < 500 nM | 50 to 200 nM
Cc1cc(O)n(-c2ccc(C(=O)NCc3ccc(-n4c(-c5cccnc5N)nc5ccc(-c6ccccc6)nc54)cc3)cc2F)n1 [Compound I-5, N-[[4-[2-(2-amino-3-pyridyl)-5-phenyl-imidazo[4,5-b]pyridin-3-yl]phenyl]methyl]-3-fluoro-4-(5-hydroxy-3-methyl-pyrazol-1-yl)benzamide] | < 500 nM | 50 to 200 nM
Nc1ncccc1-c1nc2ccc(-c3ccccc3)nc2n1-c1ccc(CNC(=O)c2ccc(-n3nc(C(F)(F)F)cc3O)cc2)cc1 [Compound I-6, N-(4-(2-(2-aminopyridin-3-yl)-5-phenyl-3H-imidazo[4,5-b]pyridin-3-yl)benzyl)-4-(5-hydroxy-3-(trifluoromethyl)-1H-pyrazol-1-yl)benzamide] | < 500 nM | 200 to 500 nM
Nc1ncccc1-c1nc2ccc(-c3ccccc3)nc2n1-c1ccc(CNC(=O)c2cccc(-n3nc(C(F)(F)F)cc3O)c2)cc1 [Compound I-7, N-(4-(2-(2-aminopyridin-3-yl)-5-phenyl-3H-imidazo[4,5-b]pyridin-3-yl)benzyl)-3-(5-hydroxy-3-(trifluoromethyl)-1H-pyrazol-1-yl)benzamide] | < 500 nM | ≥ 500 nM
Nc1ncccc1-c1nc2ccc(-c3ccccc3)nc2n1-c1ccc(CNC(=O)c2ccc(-n3nc(-c4ccccc4)cc3O)cc2)cc1 [Compound I-8, N-(4-(2-(2-aminopyridin-3-yl)-5-phenyl-3H-imidazo[4,5-b]pyridin-3-yl)benzyl)-4-(5-hydroxy-3-phenyl-1H-pyrazol-1-yl)benzamide] | < 500 nM | ≥ 500 nM
COC(=O)Cc1cc(O)n(-c2ccc(C(=O)NCc3ccc(-n4c(-c5cccnc5N)nc5ccc(-c6ccccc6)nc54)cc3)cc2)n1 [Compound I-9, Methyl 2-(1-(4-((4-(2-(2-aminopyridin-3-yl)-5-phenyl-3H-imidazo[4,5-b]pyridin-3-yl)benzyl)carbamoyl)phenyl)-5-hydroxy-1H-pyrazol-3-yl)acetate] | < 500 nM | 50 to 200 nM
Nc1ncccc1-c1nc2ccc(-c3ccccc3)nc2n1-c1ccc(CNC(=O)c2ccc(-n3nc(CC(=O)O)cc3O)cc2)cc1 [Compound I-10, 2-(1-(4-((4-(2-(2-aminopyridin-3-yl)-5-phenyl-3H-imidazo[4,5-b]pyridin-3-yl)benzyl)carbamoyl)phenyl)-5-hydroxy-1H-pyrazol-3-yl)acetic acid] | < 500 nM | < 50 nM
Nc1ncccc1-c1nc2ccc(-c3ccccc3)nc2n1-c1ccc(CNC(=O)c2ccc(-n3cc(C(=O)O)cn3)cc2)cc1 [Compound I-11, 1-(4-((4-(2-(2-aminopyridin-3-yl)-5-phenyl-3H-imidazo[4,5-b]pyridin-3-yl)benzyl)carbamoyl)phenyl)-1H-pyrazole-4-carboxylic acid] | < 500 nM | < 50 nM
N#Cc1cnn(-c2ccc(C(=O)NCc3ccc(-n4c(-c5cccnc5N)nc5ccc(-c6ccccc6)nc54)cc3)cc2)c1 [Compound I-12, N-(4-(2-(2-aminopyridin-3-yl)-5-phenyl-3H-imidazo[4,5-b]pyridin-3-yl)benzyl)-4-(4-cyano-1H-pyrazol-1-yl)benzamide] | < 500 nM | 200 to 500 nM
Cc1cc(C#N)n(-c2ccc(C(=O)NCc3ccc(-n4c(-c5cccnc5N)nc5ccc(-c6ccccc6)nc54)cc3)cc2)n1 [Compound I-13, N-(4-(2-(2-aminopyridin-3-yl)-5-phenyl-3H-imidazo[4,5-b]pyridin-3-yl)benzyl)-4-(5-cyano-3-methyl-1H-pyrazol-1-yl)benzamide] | < 500 nM | 200 to 500 nM
N#Cc1cc(O)n(-c2ccc(C(=O)NCc3ccc(-n4c(-c5cccnc5N)nc5ccc(-c6ccccc6)nc54)cc3)cc2)n1 [Compound I-15, N-(4-(2-(2-aminopyridin-3-yl)-5-phenyl-3H-imidazo[4,5-b]pyridin-3-yl)benzyl)-4-(3-cyano-5-hydroxy-1H-pyrazol-1-yl)benzamide] | < 500 nM | 50 to 200 nM
Cc1cc(C(N)=O)n(-c2ccc(C(=O)NCc3ccc(-n4c(-c5cccnc5N)nc5ccc(-c6ccccc6)nc54)cc3)cc2)n1 [Compound I-16, 1-(4-((4-(2-(2-aminopyridin-3-yl)-5-phenyl-3H-imidazo[4,5-b]pyridin-3-yl)benzyl)carbamoyl)phenyl)-3-methyl-1H-pyrazole-5-carboxamide] | < 500 nM | 200 to 500 nM
Cc1cc(C(N)=O)nn1-c1ccc(C(=O)NCc2ccc(-n3c(-c4cccnc4N)nc4ccc(-c5ccccc5)nc43)cc2)cc1 [Compound I-17, 1-(4-((4-(2-(2-aminopyridin-3-yl)-5-phenyl-3H-imidazo[4,5-b]pyridin-3-yl)benzyl)carbamoyl)phenyl)-5-methyl-1H-pyrazole-3-carboxamide] | < 500 nM | 200 to 500 nM
Cc1cc(O)n(-c2ccc(C(=O)NCc3ccc(-n4c(-c5cccnc5N)nc5ccc(-c6ccccc6)nc54)cc3)cn2)n1 [Compound I-18, N-(4-(2-(2-aminopyridin-3-yl)-5-phenyl-3H-imidazo[4,5-b]pyridin-3-yl)benzyl)-6-(5-hydroxy-3-methyl-1H-pyrazol-1-yl)nicotinamide] | < 500 nM | < 50 nM
Cc1cc(O)n(-c2ccc(C(=O)NCc3ccc(-n4c(-c5cccnc5N)nc5ccc(-c6ccccc6)nc54)cc3)nc2)n1 [Compound I-19, N-(4-(2-(2-aminopyridin-3-yl)-5-phenyl-3H-imidazo[4,5-b]pyridin-3-yl)benzyl)-5-(5-hydroxy-3-methyl-1H-pyrazol-1-yl)picolinamide] | < 500 nM | 200 to 500 nM
